Among the test systems are HOP-18 NSCLC; LXFL 529 NSCLC; XF 498 CNS; P388/ADR leukemia; SN12K1 renal; P388 leukemia; RXF-631 renal.
Assay in all cases: NCI tumour cell line growth inhibition, 48 h

Drawing on PubChem BioAssay (NCI), this text covers TGI for seven compounds.

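The compound was tested at five concentrations on cells cultured in 96-well plates, with a 48-hour exposure period. TGI is the concentration that stops growth completely.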

With `CS(=O)(=O)OCCCOS(C)(=O)=O`, the TGI in the assay with HOP-18 NSCLC, with LXFL 529 NSCLC and in the assay on XF 498 CNS was greater than 100 µM in each case.
With `COc1cc(C2c3cc4c(cc3[C@@H](Nc3cccc([N+](=O)[O-])c3)C3COC(=O)[C@H]23)OCO4)cc(OC)c1O` (stereo partly drawn), the TGI is 39.3 µM in the assay with HOP-18 NSCLC, 5.58 µM in the assay with P388/ADR leukemia, 10.3 µM in the assay on SN12K1 renal and greater than 40.2 µM in the assay with XF 498 CNS.
Regarding `CCCCCCCCCCCCCCCCCCOCC(COP(=O)([O-])OCC[N+](C)(C)C)OC` (stereo not drawn), the TGI was determined as 27.5 µM in the assay with HOP-18 NSCLC; 11 µM in the assay with P388 leukemia; 20 µM in the assay with P388/ADR leukemia; 24.3 µM in the assay on SN12K1 renal; 28.8 µM with XF 498 CNS.
For `CCN(CC)CCCC(C)NC(=O)c1ccc2c(c1)C(=O)c1ccccc1C2=O` (stereo not drawn), the TGI in the assay with HOP-18 NSCLC is greater than 100 µM; with LXFL 529 NSCLC, 66.9 µM; with RXF-631 renal, 65.5 µM; in the assay on XF 498 CNS, 21.3 µM.
In the assay on LXFL 529 NSCLC, `CCCCCCC(C)OC(=O)/C=C(\CC(=O)OC(C)CCCCCC)C(=O)OC(C)CCCCCC` (stereo not drawn) yielded a TGI greater than 100 µM.
Turning to `C=C1C(=O)O[C@@H]2[C@H](O)[C@@H](C)[C@@H]3C=CC(=O)[C@@]3(C)[C@H](OC(=O)C=C(C)C)[C@H]12`, the TGI turned out to be 3.09 µM in the assay with HOP-18 NSCLC; 0.483 µM in the assay on P388 leukemia; 0.272 µM in the assay with P388/ADR leukemia; 1.75 µM with SN12K1 renal; 2.63 µM with XF 498 CNS.
`O=C1c2ccccc2C(=O)c2c(O)ccc(O)c21` showed a TGI in the assay with LXFL 529 NSCLC greater than 100 µM.
